The data set is described as follows: Photostability of phytoglycogen-ethyl-4-aminocinnamate conjugate versus aminocinnamate. Format: physicochemical. The settings on record: after 4 h of exposure to UV-irradiation, thin film. Here is the method:
Aminocinnamate and a phytoglycogen-ethyl-4-aminocinnamate conjugate were dissolved in ethanol or in water, respectively.
Solutions were deposited as thin films onto a quartz plate and dried in air for 30 min. After drying, the samples were irradiated with UV light, as in Example 11, for 4 h and then tested for their photostability.
Photodegradation was calculated from the decrease in the maximum absorption of the respective products.

Structures are written as SMILES.

Take `CCOC(=O)C=Cc1ccc(N)cc1` [aminocinnamate, ethyl 4-aminocinnamate]: the activity retained was 40%.

The values above are taken from patent publication US20190038542A1, “MOISTURIZING PERSONAL CARE COMPOSITIONS COMPRISING MONODISPERSE PHYTOGLYCOGEN NANOPARTICLES AND A FURTHER POLYSACCHARIDE” (MIREXUS BIOTECHNOLOGIES INC., priority 2016, published 2019).
